Source: patent US10294202B2, “Pyrrolidinones as herbicides” (FMC Corporation, priority 2013, dated 2019)

Assays:
giant foxtail = experiment: Test A pre-/postemergence herbicide test; assay type: in vivo, Setaria faberii
In short: (§1)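 Formulated compound (non-phytotoxic solvent, surfactant) sprayed pre- onto soil of seeded loam/sand pots or post- onto seedlings at 1–2 leaves; ~10 d greenhouse; 0–100 visual control rating versus untreated.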

ryegrass, Italian = experiment: Test A pre-/postemergence herbicide test; assay type: in vivo, Lolium multiflorum
In short: as §1

barnyardgrass [1] = experiment: Test A pre-/postemergence herbicide test; assay type: in vivo, Echinochloa crus-galli
In short: as §1

barnyardgrass [2] = experiment: Test C flooded paddy test; assay type: in vivo, Echinochloa crus-galli; conditions: Flood
In short: (§2)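 Visual ratings from 0, no effect, to 100, complete control, were made against untreated controls after 13–15 greenhouse days. Compounds had gone straight into paddy water 3 cm above the soil, kept at that depth, on 2-leaf-stage plants.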

rice = experiment: Test C flooded paddy test; assay type: in vivo, Oryza sativa; conditions: Flood
In short: as §2

galium = experiment: Test A postemergence herbicide test; assay type: in vivo, Galium aparine
In short: (§3)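 Blackgrass and galium grown in pots of loam soil–sand blend, treated postemergence at 2–10 cm height, one- to two-leaf stage. Plants kept in greenhouse ~10 days, then visually rated for injury against untreated controls on a 0–100 scale (0 no effect, 100 complete control).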

corn = experiment: Test A pre-/postemergence herbicide test; assay type: in vivo, Zea mays; conditions: Postemergence
In short: as §1

wheat = experiment: Test A pre-/postemergence herbicide test; assay type: in vivo, Triticum aestivum; conditions: Postemergence
In short: as §1

ragweed = experiment: Test A pre-/postemergence herbicide test; assay type: in vivo, Ambrosia elatior
In short: as §1

kochia = experiment: Test A pre-/postemergence herbicide test; assay type: in vivo, Kochia scoparia
In short: as §1

sedge, umbrella = experiment: Test C flooded paddy test; assay type: in vivo, Cyperus difformis; conditions: Flood
In short: as §2

ducksalad = experiment: Test C flooded paddy test; assay type: in vivo, Heteranthera limosa; conditions: Flood
In short: as §2

blackgrass = experiment: Test A postemergence herbicide test; assay type: in vivo, Alopecurus myosuroides
In short: as §3

pigweed = experiment: Test A pre-/postemergence herbicide test; assay type: in vivo, Amaranthus retroflexus
In short: as §1

morningglory = experiment: Test A pre-/postemergence herbicide test; assay type: in vivo, Ipomoea spp.; conditions: Postemergence, 125 g ai/ha; visual rating on 0 to 100 scale (0 no effect, 100 complete control), approx. 10 days
In short: as §1

[3] = 125 g ai/ha, visual rating, 0 to 100 scale, 0 no effect, 100 complete control, approximately 10 days, preemergence
[4] = Postemergence, 125 g ai/ha, 0 to 100 scale, 0 is no effect, 100 is complete control
[5] = preemergence, 500 g ai/ha, 0 to 100 scale, 0 is no effect and 100 is complete control
[6] = 125 g ai/ha, scale of 0 to 100 where 0 is no effect and 100 is complete control, 13 to 15 days
[7] = 250 g ai/ha, scale of 0 to 100 where 0 is no effect and 100 is complete control, 13 to 15 days
[8] = 125 g ai/ha, 0 to 100 scale, 0 is no effect, 100 is complete control
[9] = Postemergence, 500 g ai/ha, 0 to 100 scale (0 no effect, 100 complete control)
[10] = Preemergence, 125 g ai/ha, 0 to 100 scale where 0 is no effect and 100 is complete control
[11] = 500 g ai/ha, 0 to 100 scale (0 no effect, 100 complete control)

O=C1NC[C@@H](c2cccc(C(F)(F)F)c2)[C@@H]1C(=O)Nc1cccc(F)c1F [Compound 205]
40: Plant response rating, Barnyardgrass (barnyardgrass [1]; [4]) | Wheat plant response rating (0 to 100 scale, 0 is no effect, 100 is complete control) (wheat; 500 g ai/ha) | Kochia plant response rating (0 to 100 scale, 0 is no effect, 100 is complete control) (kochia; Postemergence, 500 g ai/ha)
90: Foxtail, Giant plant response rating (0 to 100 scale, 0 is no effect, 100 is complete control) (giant foxtail; Postemergence, 500 g ai/ha) | Plant response rating, Foxtail, Giant (giant foxtail; [5])
0: Plant response rating, Ryegrass, Italian (ryegrass, Italian; [3]) | Plant response rating, Ryegrass, Italian (ryegrass, Italian; [4]) | Ryegrass, Italian plant response rating (0 to 100 scale, 0 is no effect, 100 is complete control) (ryegrass, Italian; Postemergence, 500 g ai/ha) | Plant response rating, Barnyardgrass (barnyardgrass [2]; [6]) | Plant response rating, Rice (rice; [6]) | Plant response rating, Rice (rice; [7]) | Plant response rating, Rice (rice; 500 g ai/ha, scale 0 to 100) | Plant response rating, Rice (rice; 1000 g ai/ha, scale 0 to 100) | Plant response rating, Corn (corn; [8]) | Corn plant response rating (0 to 100 scale, 0 is no effect, 100 is complete control) (corn; 500 g ai/ha) | Plant response rating, Wheat (wheat; [8]) | Plant response rating, Ragweed (ragweed; [3]) | Plant response rating, Ragweed (ragweed; [4]) | Ragweed plant response rating (0 to 100 scale, 0 is no effect, 100 is complete control) (ragweed; Postemergence, 500 g ai/ha) | Plant response rating, Kochia (kochia; [4]) | Plant response rating, Sedge, Umbrella (sedge, umbrella; [6]) | Plant response rating, Sedge, Umbrella (sedge, umbrella; [7]) | Plant response rating, Sedge, Umbrella (sedge, umbrella; 500 g ai/ha, scale 0 to 100) | Plant response rating, Sedge, Umbrella (sedge, umbrella; 1000 g ai/ha, scale 0 to 100) | Plant response rating, Ducksalad (ducksalad; [6]) | Plant response rating, Ducksalad (ducksalad; [7]) | Plant response rating, Blackgrass (blackgrass; [8]) | Plant response rating, Pigweed (pigweed; [3]) | Plant response rating, Pigweed (pigweed; [4])
60: Plant response rating, Foxtail, Giant (giant foxtail; [3]) | Galium plant response rating (0 to 100 scale, 0 is no effect, 100 is complete control) (galium; 500 g ai/ha)
20: Plant response rating, Ryegrass, Italian (ryegrass, Italian; [5]) | Plant response rating, Barnyardgrass (barnyardgrass [2]; [7]) | Plant response rating, Kochia (kochia; [3]) | Plant response rating, Pigweed (pigweed; [5])
45: Plant response rating, Barnyardgrass (barnyardgrass [2]; 1000 g ai/ha, scale 0 to 100)
80: Plant response rating, Barnyardgrass (barnyardgrass [1]; [5])
70: Plant response rating, Foxtail, Giant (giant foxtail; [4]) | Barnyardgrass plant response rating (0 to 100 scale, 0 is no effect, 100 is complete control) (barnyardgrass [1]; Postemergence, 500 g ai/ha) | Blackgrass plant response rating (0 to 100 scale, 0 is no effect, 100 is complete control) (blackgrass; 500 g ai/ha)
50: Plant response rating, Kochia (kochia; [5]) | Plant response rating, Ducksalad (ducksalad; 500 g ai/ha, scale 0 to 100)
30: Plant response rating, Barnyardgrass (barnyardgrass [1]; [3]) | Plant response rating, Barnyardgrass (barnyardgrass [2]; 500 g ai/ha, scale 0 to 100) | Plant response rating, Galium (galium; [8]) | Plant response rating, Ragweed (ragweed; [5]) | Pigweed plant response rating (0 to 100 scale, 0 is no effect, 100 is complete control) (pigweed; Postemergence, 500 g ai/ha)
65: Plant response rating, Ducksalad (ducksalad; 1000 g ai/ha, scale 0 to 100)

CN1CC(c2ccc(F)cc2)C(C(=O)Nc2ccccc2F)C1=O (centres unmarked) [Compound 270]
40: Plant response rating, Pigweed (pigweed; Postemergence, 125 g ai/ha, visual rating on 0 to 100 scale (0 no effect, 100 complete control), approx. 10 days)
50: Plant response rating, Galium (galium; [11])
90: Plant response rating, Foxtail, Giant (giant foxtail; [9]) | Plant response rating, Foxtail, Giant (giant foxtail; [5]) | Plant response rating, Barnyardgrass (barnyardgrass [1]; [4]) | Plant response rating, Barnyardgrass (barnyardgrass [1]; [9]) | Plant response rating, Barnyardgrass (barnyardgrass [1]; [5])
80: Plant response rating, Foxtail, Giant (giant foxtail; [10]) | Plant response rating, Barnyardgrass (barnyardgrass [2]; 1000 g ai/ha, scale 0 to 100) | Plant response rating, Kochia (kochia; [5])
30: Plant response rating, Barnyardgrass (barnyardgrass [2]; [7]) | Plant response rating, Corn (corn; [11]) | Plant response rating, Kochia (kochia; [9])
100: Plant response rating, Ducksalad (ducksalad; 500 g ai/ha, scale 0 to 100) | Plant response rating, Ducksalad (ducksalad; 1000 g ai/ha, scale 0 to 100)
85: Plant response rating, Ducksalad (ducksalad; [7])
75: Plant response rating, Ducksalad (ducksalad; [6])
10: Plant response rating, Barnyardgrass (barnyardgrass [2]; [6])
60: Plant response rating, Foxtail, Giant (giant foxtail; [4]) | Plant response rating, Barnyardgrass (barnyardgrass [1]; [10]) | Plant response rating, Barnyardgrass (barnyardgrass [2]; 500 g ai/ha, scale 0 to 100)
0: Plant response rating, Ryegrass, Italian (ryegrass, Italian; [10]) | Plant response rating, Ryegrass, Italian (ryegrass, Italian; [5]) | Plant response rating, Morningglory (morningglory) | Plant response rating, Rice (rice; [6]) | Plant response rating, Rice (rice; [7]) | Plant response rating, Rice (rice; 500 g ai/ha, scale 0 to 100) | Plant response rating, Rice (rice; 1000 g ai/ha, scale 0 to 100) | Plant response rating, Corn (corn; [8]) | Plant response rating, Wheat (wheat; 125 g ai/ha, visual rating on 0 to 100 scale (0 no effect, 100 complete control), approx. 10 days) | Plant response rating, Ragweed (ragweed; [9]) | Plant response rating, Ragweed (ragweed; [10]) | Plant response rating, Kochia (kochia; [4]) | Plant response rating, Kochia (kochia; [10]) | Plant response rating, Sedge, Umbrella (sedge, umbrella; [6]) | Plant response rating, Sedge, Umbrella (sedge, umbrella; [7]) | Plant response rating, Sedge, Umbrella (sedge, umbrella; 500 g ai/ha, scale 0 to 100) | Plant response rating, Sedge, Umbrella (sedge, umbrella; 1000 g ai/ha, scale 0 to 100) | Plant response rating, Blackgrass (blackgrass; [8]) | Plant response rating, Pigweed (pigweed; [9]) | Plant response rating, Pigweed (pigweed; [10])
20: Plant response rating, Ryegrass, Italian (ryegrass, Italian; [9]) | Plant response rating, Galium (galium; [8]) | Plant response rating, Wheat (wheat; [11]) | Plant response rating, Ragweed (ragweed; [5]) | Plant response rating, Blackgrass (blackgrass; [11]) | Plant response rating, Pigweed (pigweed; [5])
